Measured values taken from patent US20230085307A1, “PYRIDAZINONE COMPOUND AND HERBICIDE” (NISSAN CHEMICAL CORPORATION, priority 2019, published 2023).

Tests used:
[1] = system: blackgrass; experiment: Test Example 4: herbicidal effect by soil treatment (Table 19, symbol J); format: in vivo, blackgrass (Alopecurus myosuroides)
Method in brief: (§1)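 Emulsion of test compound, water-diluted to predetermined amount, sprayed on soil after sowing (seed depth ~1.5 cm, sterilized diluvial soil). Greenhouse, 25–30° C. Effect graded at three weeks post-spray.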

[2] = system: Chinese sprangletop; experiment: Test Example 3: herbicidal effect by foliage application, Wagner pot (Table 18, symbol D); format: in vivo, chinese sprangletop (Leptochloa chinensis); settings: 320 g/ha
Method in brief: (§2)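 Plants were sown in alluvial soil held under 0.1–0.5 cm standing water and grown 14 days in a greenhouse at 25–30 °C. An emulsifiable formulation, water-diluted to the set dose, was then sprayed onto the foliage, and effects were scored three weeks later using previously defined criteria.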

[3] = system: persian speedwell; experiment: Test Example 5: herbicidal effect by foliage application, plastic box (Table 20, symbol R); format: in vivo, Persian speedwell (Veronica persica); settings: foliage application, three weeks after application
Method in brief: (§3)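 Post-emergence foliar test in sterilized diluvial soil. Compound applied as water-diluted emulsion at a predetermined rate to 14-day-old plants; evaluation at three weeks.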

[4] = system: windgrass; experiment: Test Example 4: herbicidal effect by soil treatment (Table 19, symbol L); format: in vivo, windgrass (Apera spica-venti)
Method in brief: as §1

[5] = system: barnyard grass; experiment: Test Example 5: herbicidal effect by foliage application, plastic box (Table 20, symbol H); format: in vivo, barnyard grass (Echinochloa crus-galli); settings: foliage application, three weeks after application
Method in brief: as §3

[6] = system: lambsquarters; experiment: Test Example 4: herbicidal effect by soil treatment (Table 19, symbol O); format: in vivo, lambsquarters (Chenopodium album)
Method in brief: as §1

[7] = system: redroot pigweed; experiment: Test Example 4: herbicidal effect by soil treatment (Table 19, symbol N); format: in vivo, redroot pigweed (Amaranthus retroflexus)
Method in brief: as §1

[8] = system: chickweed; experiment: Test Example 5: herbicidal effect by foliage application, plastic box (Table 20, symbol P); format: in vivo, common chickweed (Stellaria media); settings: foliage application, three weeks after application
Method in brief: as §3

[9] = system: lambsquarters; experiment: Test Example 5: herbicidal effect by foliage application, plastic box (Table 20, symbol O); format: in vivo, lambsquarters (Chenopodium album); settings: foliage application, three weeks after application
Method in brief: as §3

[10] = system: chickweed; experiment: Test Example 4: herbicidal effect by soil treatment (Table 19, symbol P); format: in vivo, common chickweed (Stellaria media)
Method in brief: as §1

[11] = system: wild oat; experiment: Test Example 4: herbicidal effect by soil treatment (Table 19, symbol I); format: in vivo, wild oat (Avena fatua)
Method in brief: as §1

[12] = system: velvetleaf; experiment: Test Example 5: herbicidal effect by foliage application, plastic box (Table 20, symbol M); format: in vivo, velvetleaf (Abutilon theophrasti); settings: foliage application, three weeks after application
Method in brief: as §3

[13] = system: velvetleaf; experiment: Test Example 4: herbicidal effect by soil treatment (Table 19, symbol M); format: in vivo, velvetleaf (Abutilon theophrasti)
Method in brief: as §1

[14] = system: wild oat; experiment: Test Example 5: herbicidal effect by foliage application, plastic box (Table 20, symbol I); format: in vivo, wild oat (Avena fatua); settings: foliage application, three weeks after application
Method in brief: as §3

[15] = system: persian speedwell; experiment: Test Example 4: herbicidal effect by soil treatment (Table 19, symbol R); format: in vivo, Persian speedwell (Veronica persica)
Method in brief: as §1

[16] = system: green foxtail; experiment: Test Example 4: herbicidal effect by soil treatment (Table 19, symbol G); format: in vivo, green foxtail (Setaria viridis)
Method in brief: as §1

[17] = system: southern crabgrass; experiment: Test Example 5: herbicidal effect by foliage application, plastic box (Table 20, symbol F); format: in vivo, southern crabgrass (Digitaria ciliaris); settings: foliage application, three weeks after application
Method in brief: as §3

[18] = system: southern crabgrass; experiment: Test Example 4: herbicidal effect by soil treatment (Table 19, symbol F); format: in vivo, southern crabgrass (Digitaria ciliaris)
Method in brief: as §1

[19] = system: redroot pigweed; experiment: Test Example 5: herbicidal effect by foliage application, plastic box (Table 20, symbol N); format: in vivo, redroot pigweed (Amaranthus retroflexus); settings: foliage application, three weeks after application
Method in brief: as §3

[20] = system: Italian ryegrass; experiment: Test Example 4: herbicidal effect by soil treatment (Table 19, symbol K); format: in vivo, Italian ryegrass (Lolium multiflorum)
Method in brief: as §1

[21] = system: barnyard grass; experiment: Test Example 3: herbicidal effect by foliage application, Wagner pot (Table 18, symbol H); format: in vivo, barnyard grass (Echinochloa crus-galli); settings: 320 g/ha
Method in brief: as §2

[22] = system: rice flat sedge; experiment: Test Example 3: herbicidal effect by foliage application, Wagner pot (Table 18, symbol E); format: in vivo, rice flat sedge (Cyperus iria); settings: 320 g/ha
Method in brief: as §2

[23] = system: green foxtail; experiment: Test Example 5: herbicidal effect by foliage application, plastic box (Table 20, symbol G); format: in vivo, green foxtail (Setaria viridis); settings: foliage application, three weeks after application
Method in brief: as §3

[24] = system: barnyard grass; experiment: Test Example 4: herbicidal effect by soil treatment (Table 19, symbol H); format: in vivo, barnyard grass (Echinochloa crus-galli)
Method in brief: as §1

[25] = system: blackgrass; experiment: Test Example 5: herbicidal effect by foliage application, plastic box (Table 20, symbol J); format: in vivo, blackgrass (Alopecurus myosuroides); settings: foliage application, three weeks after application
Method in brief: as §3

[26] = system: Italian ryegrass; experiment: Test Example 5: herbicidal effect by foliage application, plastic box (Table 20, symbol K); format: in vivo, Italian ryegrass (Lolium multiflorum); settings: foliage application, three weeks after application
Method in brief: as §3

[27] = system: windgrass; experiment: Test Example 5: herbicidal effect by foliage application, plastic box (Table 20, symbol L); format: in vivo, windgrass (Apera spica-venti); settings: foliage application, three weeks after application
Method in brief: as §3

[28] = amount of applied herbicide 320 g/ha

**Q.** For `C#CCOc1ccccc1-c1sc2ccccc2c1-c1c(O)c(C)nn(C)c1=O` [1-112], which “herbicidal effect rating, J: blackgrass” value [1, 28] is on record?
**A.** Its value is 4 (Herbicidal rate of 70% or more and less than 90%).

**Q.** What about the “herbicidal effect on D (Chinese sprangletop), rating 0-5” value [2] of the same compound?
**A.** Its value is 3 (Herbicidal rate of 40% or more and less than 70%).

**Q.** What about the “R: persian speedwell, herbicidal effect” value ([3]; AAH 320 g/ha) of the same compound?
**A.** Its value is 5 (Herbicidal rate of 90% or more (almost completely withered)).

**Q.** And the “herbicidal effect rating, L: windgrass” value [4, 28]?
**A.** The value was 5 (Herbicidal rate of 90% or more (almost completely withered)).

**Q.** What about the “H: barnyard grass, herbicidal effect” value ([5]; AAH 320 g/ha) of the same compound?
**A.** The value was 4 (Herbicidal rate of 70% or more and less than 90%).

**Q.** What about the “herbicidal effect rating, O: lambsquarters” value [6, 28] of the same compound?
**A.** The value was 0 (Herbicidal rate of 5% or less (almost no effect)).

**Q.** What about the “herbicidal effect rating, N: redroot pigweed” value [7, 28] of the same compound?
**A.** The value was 1 (Herbicidal rate of 5% or more and less than 20%).

**Q.** What about the “P: chickweed, herbicidal effect” value ([8]; AAH 320 g/ha) of the same compound?
**A.** Its value is 5 (Herbicidal rate of 90% or more (almost completely withered)).

**Q.** What about the “O: lambsquarters, herbicidal effect” value ([9]; AAH 320 g/ha) of the same compound?
**A.** The value was 1 (Herbicidal rate of 5% or more and less than 20%).

**Q.** And the “herbicidal effect rating, P: chickweed” value [10, 28]?
**A.** The value was 5 (Herbicidal rate of 90% or more (almost completely withered)).

**Q.** What about the “herbicidal effect rating, I: wild oat” value [11, 28] of the same compound?
**A.** Its value is 0 (Herbicidal rate of 5% or less (almost no effect)).

**Q.** What about the “M: velvetleaf, herbicidal effect” value ([12]; AAH 320 g/ha) of the same compound?
**A.** The value was 4 (Herbicidal rate of 70% or more and less than 90%).

**Q.** And the “herbicidal effect rating, M: velvetleaf” value [13, 28]?
**A.** Its value is 3 (Herbicidal rate of 40% or more and less than 70%).

**Q.** And the “I: wild oat, herbicidal effect” value ([14]; AAH 320 g/ha)?
**A.** The value was 5 (Herbicidal rate of 90% or more (almost completely withered)).

**Q.** What about the “herbicidal effect rating, R: persian speedwell” value [15, 28] of the same compound?
**A.** Its value is 5 (Herbicidal rate of 90% or more (almost completely withered)).

**Q.** And the “herbicidal effect rating, G: green foxtail” value [16, 28]?
**A.** Its value is 1 (Herbicidal rate of 5% or more and less than 20%).

**Q.** What about the “F: southern crabgrass, herbicidal effect” value ([17]; AAH 320 g/ha) of the same compound?
**A.** The value was 5 (Herbicidal rate of 90% or more (almost completely withered)).

**Q.** What about the “herbicidal effect rating, F: southern crabgrass” value [18, 28] of the same compound?
**A.** The value was 0 (Herbicidal rate of 5% or less (almost no effect)).

**Q.** And the “N: redroot pigweed, herbicidal effect” value ([19]; AAH 320 g/ha)?
**A.** Its value is 5 (Herbicidal rate of 90% or more (almost completely withered)).

**Q.** What about the “herbicidal effect rating, K: Italian ryegrass” value [20, 28] of the same compound?
**A.** The value was 0 (Herbicidal rate of 5% or less (almost no effect)).

**Q.** And the “herbicidal effect on H (barnyard grass), rating 0-5” value [21]?
**A.** Its value is 4 (Herbicidal rate of 70% or more and less than 90%).

**Q.** What about the “herbicidal effect on E (rice flat sedge), rating 0-5” value [22] of the same compound?
**A.** The value was 3 (Herbicidal rate of 40% or more and less than 70%).

**Q.** And the “G: green foxtail, herbicidal effect” value ([23]; AAH 320 g/ha)?
**A.** Its value is 5 (Herbicidal rate of 90% or more (almost completely withered)).

**Q.** And the “herbicidal effect rating, H: barnyard grass” value [24, 28]?
**A.** Its value is 0 (Herbicidal rate of 5% or less (almost no effect)).

**Q.** What about the “J: blackgrass, herbicidal effect” value ([25]; AAH 320 g/ha) of the same compound?
**A.** The value was 5 (Herbicidal rate of 90% or more (almost completely withered)).

**Q.** What about the “K: Italian ryegrass, herbicidal effect” value ([26]; AAH 320 g/ha) of the same compound?
**A.** Its value is 3 (Herbicidal rate of 40% or more and less than 70%).

**Q.** And the “L: windgrass, herbicidal effect” value ([27]; AAH 320 g/ha)?
**A.** The value was 5 (Herbicidal rate of 90% or more (almost completely withered)).

**Q.** What does the source list for `COc1nn(C)c(=O)c(-c2c(-c3cc(F)c(F)c(F)c3)sc3ccccc23)c1O` [1-186]?
**A.** J: blackgrass, herbicidal effect rating ([1]; AAH 283 g/ha): 0 (Herbicidal rate of 5% or less (almost no effect)); R: persian speedwell, herbicidal effect ([3]; AAH 283 g/ha): 5 (Herbicidal rate of 90% or more (almost completely withered)); L: windgrass, herbicidal effect rating ([4]; AAH 283 g/ha): 0 (Herbicidal rate of 5% or less (almost no effect)); H: barnyard grass, herbicidal effect ([5]; AAH 283 g/ha): 0 (Herbicidal rate of 5% or less (almost no effect)); O: lambsquarters, herbicidal effect rating ([6]; AAH 283 g/ha): 0 (Herbicidal rate of 5% or less (almost no effect)); N: redroot pigweed, herbicidal effect rating ([7]; AAH 283 g/ha): 2 (Herbicidal rate of 20% or more and less than 40%); P: chickweed, herbicidal effect ([8]; AAH 283 g/ha): 5 (Herbicidal rate of 90% or more (almost completely withered)); O: lambsquarters, herbicidal effect ([9]; AAH 283 g/ha): 2 (Herbicidal rate of 20% or more and less than 40%); P: chickweed, herbicidal effect rating ([10]; AAH 283 g/ha): 5 (Herbicidal rate of 90% or more (almost completely withered)); I: wild oat, herbicidal effect rating ([11]; AAH 283 g/ha): 0 (Herbicidal rate of 5% or less (almost no effect)); M: velvetleaf, herbicidal effect ([12]; AAH 283 g/ha): 3 (Herbicidal rate of 40% or more and less than 70%); M: velvetleaf, herbicidal effect rating ([13]; AAH 283 g/ha): 0 (Herbicidal rate of 5% or less (almost no effect)); I: wild oat, herbicidal effect ([14]; AAH 283 g/ha): 0 (Herbicidal rate of 5% or less (almost no effect)); R: persian speedwell, herbicidal effect rating ([15]; AAH 283 g/ha): 4 (Herbicidal rate of 70% or more and less than 90%); G: green foxtail, herbicidal effect rating ([16]; AAH 283 g/ha): 0 (Herbicidal rate of 5% or less (almost no effect)); F: southern crabgrass, herbicidal effect ([17]; AAH 283 g/ha): 0 (Herbicidal rate of 5% or less (almost no effect)); F: southern crabgrass, herbicidal effect rating ([18]; AAH 283 g/ha): 0 (Herbicidal rate of 5% or less (almost no effect)); N: redroot pigweed, herbicidal effect ([19]; AAH 283 g/ha): 4 (Herbicidal rate of 70% or more and less than 90%); K: Italian ryegrass, herbicidal effect rating ([20]; AAH 283 g/ha): 0 (Herbicidal rate of 5% or less (almost no effect)); G: green foxtail, herbicidal effect ([23]; AAH 283 g/ha): 0 (Herbicidal rate of 5% or less (almost no effect)); H: barnyard grass, herbicidal effect rating ([24]; AAH 283 g/ha): 0 (Herbicidal rate of 5% or less (almost no effect)); J: blackgrass, herbicidal effect ([25]; AAH 283 g/ha): 0 (Herbicidal rate of 5% or less (almost no effect)); K: Italian ryegrass, herbicidal effect ([26]; AAH 283 g/ha): 0 (Herbicidal rate of 5% or less (almost no effect)); L: windgrass, herbicidal effect ([27]; AAH 283 g/ha): 0 (Herbicidal rate of 5% or less (almost no effect))
